{"source": "ChEMBL document CHEMBL3797052", "about": "(Eur J Med Chem, 2016)", "key": {"CYP1A2": {"molecular_target": "T1, CYP1A2 (Homo sapiens, UniProt P05177)", "T1 sequence (P05177 whole entry)": "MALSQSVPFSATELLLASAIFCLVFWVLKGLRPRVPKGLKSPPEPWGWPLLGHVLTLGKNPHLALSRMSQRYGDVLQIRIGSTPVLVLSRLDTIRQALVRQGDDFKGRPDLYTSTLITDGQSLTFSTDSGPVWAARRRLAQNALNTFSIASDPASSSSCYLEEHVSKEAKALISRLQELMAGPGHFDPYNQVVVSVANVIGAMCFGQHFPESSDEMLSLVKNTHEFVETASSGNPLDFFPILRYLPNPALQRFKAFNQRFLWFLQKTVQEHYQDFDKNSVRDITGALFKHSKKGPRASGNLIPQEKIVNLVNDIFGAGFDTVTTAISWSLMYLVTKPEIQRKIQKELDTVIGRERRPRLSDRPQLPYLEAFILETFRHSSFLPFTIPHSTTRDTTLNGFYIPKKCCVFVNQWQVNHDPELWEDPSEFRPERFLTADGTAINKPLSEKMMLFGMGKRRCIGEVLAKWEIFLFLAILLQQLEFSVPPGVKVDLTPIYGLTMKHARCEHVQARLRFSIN", "test": "Inhibition of recombinant human CYP1A2 assessed as remaining enzyme activity using CYP1A2 blue as substrate at 10 uM after 5 mins in presence of NADP by fluorescence plate reader analysis", "format": "ADME", "conditions": "recombinant human CYP1A2, probe CYP1A2 blue, read-out: Activity"}, "[1]": {"test": "Antiproliferative activity against human UO31 cells assessed as growth inhibition after 48 hrs by sulforhodamine B assay", "format": "functional", "conditions": "UO-31, 48 h"}, "ACHN [2]": {"system": "ACHN", "test": "Antiproliferative activity against human ACHN cells assessed as growth inhibition after 48 hrs by sulforhodamine B assay", "format": "functional"}, "[3]": {"test": "Antiproliferative activity against human NCI-ADR-RES cells assessed as growth inhibition after 48 hrs by sulforhodamine B assay", "format": "functional"}, "[4]": {"test": "Antiproliferative activity against human HCC2998 cells assessed as cell growth at 10^-7 M after 48 hrs by sulforhodamine B assay", "format": "functional", "conditions": "HCC 2998, 48 h, read-out: Activity"}, "[5]": {"test": "Antiproliferative activity against human UACC257 cells assessed as cell growth at 10^-7 M after 48 hrs by sulforhodamine B assay", "format": "functional", "conditions": "UACC-257, 48 h, read-out: Activity"}, "[6]": {"test": "Antiproliferative activity against human IGROV1 cells assessed as cell growth at 10^-7 M after 48 hrs by sulforhodamine B assay", "format": "functional", "conditions": "IGROV-1, 48 h, read-out: Activity"}, "[7]": {"test": "Antiproliferative activity against human TK10 cells assessed as cell growth at 10^-7 M after 48 hrs by sulforhodamine B assay", "format": "functional", "conditions": "TK-10, 48 h, read-out: Activity"}, "[8]": {"test": "Antiproliferative activity against human DU145 cells assessed as cell growth at 10^-7 M after 48 hrs by sulforhodamine B assay", "format": "functional", "conditions": "DU-145, 48 h, read-out: Activity"}, "[9]": {"test": "Antiproliferative activity against human SF268 cells assessed as growth inhibition after 48 hrs by sulforhodamine B assay", "format": "functional", "conditions": "SF-268, 48 h"}, "KM12": {"system": "KM12", "test": "Antiproliferative activity against human KM12 cells assessed as growth inhibition after 48 hrs by sulforhodamine B assay", "format": "functional", "conditions": "KM12, 48 h"}, "SR": {"system": "SR", "test": "Antiproliferative activity against human SR cells assessed as growth inhibition after 48 hrs by sulforhodamine B assay", "format": "functional"}, "[10]": {"test": "Antiproliferative activity against human HOP62 cells assessed as cell growth at 10^-8 M after 48 hrs by sulforhodamine B assay", "format": "functional", "conditions": "HOP-62, 48 h, read-out: Activity"}, "NCI-H226 [11]": {"system": "NCI-H226", "test": "Antiproliferative activity against human NCI-H226 cells assessed as cell growth at 10^-8 M after 48 hrs by sulforhodamine B assay", "format": "functional", "conditions": "NCI-H226, 48 h, read-out: Activity"}, "NCI-H522": {"system": "NCI-H522", "test": "Antiproliferative activity against human NCI-H522 cells assessed as cell growth at 10^-8 M after 48 hrs by sulforhodamine B assay", "format": "functional", "conditions": "NCI-H522, 48 h, read-out: Activity"}, "[12]": {"test": "Antiproliferative activity against human SF539 cells assessed as cell growth at 10^-8 M after 48 hrs by sulforhodamine B assay", "format": "functional", "conditions": "SF-539, 48 h, read-out: Activity"}, "NCI-H226 [13]": {"system": "NCI-H226", "test": "Antiproliferative activity against human NCI-H226 cells assessed as cell growth at 10^-6 M after 48 hrs by sulforhodamine B assay", "format": "functional", "conditions": "NCI-H226, 48 h, read-out: Activity"}, "[14]": {"test": "Antiproliferative activity against human COLO205 cells assessed as cell growth at 10^-6 M after 48 hrs by sulforhodamine B assay", "format": "functional", "conditions": "COLO 205, 48 h, read-out: Activity"}, "[15]": {"test": "Antiproliferative activity against human HCC2998 cells assessed as cell growth at 10^-6 M after 48 hrs by sulforhodamine B assay", "format": "functional", "conditions": "HCC 2998, 48 h, read-out: Activity"}, "[16]": {"test": "Antiproliferative activity against human HCT15 cells assessed as cell growth at 10^-6 M after 48 hrs by sulforhodamine B assay", "format": "functional", "conditions": "HCT-15, 48 h, read-out: Activity"}, "[17]": {"test": "Antiproliferative activity against human SW620 cells assessed as cell growth at 10^-6 M after 48 hrs by sulforhodamine B assay", "format": "functional", "conditions": "SW-620, 48 h, read-out: Activity"}, "EKVX": {"system": "EKVX", "test": "Antiproliferative activity against human EKVX cells assessed as cell growth at 10^-4 M after 48 hrs by sulforhodamine B assay", "format": "functional", "conditions": "read-out: Activity"}, "NCI-H460": {"system": "NCI-H460", "test": "Antiproliferative activity against human NCI-H460 cells assessed as cell growth at 10^-4 M after 48 hrs by sulforhodamine B assay", "format": "functional", "conditions": "NCI-H460, 48 h, read-out: Activity"}, "ACHN [18]": {"system": "ACHN", "test": "Antiproliferative activity against human ACHN cells assessed as cell growth at 10^-6 M after 48 hrs by sulforhodamine B assay", "format": "functional", "conditions": "read-out: Activity"}, "[19]": {"test": "Antiproliferative activity against human UACC257 cells assessed as cell growth at 10^-4 M after 48 hrs by sulforhodamine B assay", "format": "functional", "conditions": "UACC-257, 48 h, read-out: Activity"}, "[20]": {"test": "Antiproliferative activity against human OVCAR5 cells assessed as cell growth at 10^-4 M after 48 hrs by sulforhodamine B assay", "format": "functional", "conditions": "OVCAR-5, 48 h, read-out: Activity"}, "[21]": {"test": "Antiproliferative activity against human OVCAR8 cells assessed as cell growth at 10^-4 M after 48 hrs by sulforhodamine B assay", "format": "functional", "conditions": "OVCAR-8, 48 h, read-out: Activity"}, "[22]": {"test": "Antiproliferative activity against human SKOV3 cells assessed as cell growth at 10^-4 M after 48 hrs by sulforhodamine B assay", "format": "functional", "conditions": "SK-OV-3, 48 h, read-out: Activity"}, "A498": {"system": "A498", "test": "Antiproliferative activity against human A498 cells assessed as cell growth at 10^-4 M after 48 hrs by sulforhodamine B assay", "format": "functional", "conditions": "A498, 48 h, read-out: Activity"}, "[23]": {"test": "Antiproliferative activity against human UO31 cells assessed as cell growth at 10^-4 M after 48 hrs by sulforhodamine B assay", "format": "functional", "conditions": "UO-31, 48 h, read-out: Activity"}, "[24]": {"test": "Antiproliferative activity against human Hs 578T cells assessed as cell growth at 10^-4 M after 48 hrs by sulforhodamine B assay", "format": "functional", "conditions": "read-out: Activity"}}}
{"compound": "CNC(=O)c1cc(Oc2ccc3nc(NC(=O)Nc4ccc(Cl)c(C(F)(F)F)c4)sc3c2)ccn1", "values": [{"measurement": "activity at 5 min, 10 µM", "setting": "CYP1A2", "result": 106, "unit": "%"}, {"measurement": "GI50", "setting": "[1]", "result": 2.17, "unit": "µM"}, {"measurement": "GI50", "setting": "ACHN [2]", "result": 1.85, "unit": "µM"}, {"measurement": "LC50", "setting": "ACHN [2]", "result": 7.82, "unit": "µM"}, {"measurement": "TGI", "setting": "ACHN [2]", "result": 3.8, "unit": "µM"}, {"measurement": "GI50", "setting": "[3]", "result": 2.43, "unit": "µM"}, {"measurement": "LC50 (concentration killing 50% of cells)", "setting": "[3]", "result": "> 100", "unit": "µM"}, {"measurement": "growth at 0.1 µM", "setting": "[4]", "result": 108, "unit": "%"}, {"measurement": "growth at 0.1 µM", "setting": "[5]", "result": 98, "unit": "%"}, {"measurement": "growth at 0.1 µM", "setting": "[6]", "result": 97, "unit": "%"}, {"measurement": "growth at 0.1 µM", "setting": "[7]", "result": 105, "unit": "%"}, {"measurement": "growth at 0.1 µM", "setting": "[8]", "result": 109, "unit": "%"}, {"measurement": "GI50", "setting": "[9]", "result": 2.34, "unit": "µM"}, {"measurement": "LC50 (concentration killing 50% of cells)", "setting": "[9]", "result": "> 100", "unit": "µM"}, {"measurement": "TGI", "setting": "[9]", "result": 16.4, "unit": "µM"}, {"measurement": "GI50", "setting": "KM12", "result": 3.41, "unit": "µM"}, {"measurement": "LC50", "setting": "KM12", "result": "> 100", "unit": "µM"}, {"measurement": "TGI", "setting": "KM12", "result": "> 100", "unit": "µM"}, {"measurement": "GI50", "setting": "SR", "result": 0.412, "unit": "µM"}, {"measurement": "LC50", "setting": "SR", "result": "> 100", "unit": "µM"}, {"measurement": "TGI", "setting": "SR", "result": 9.1, "unit": "µM"}, {"measurement": "growth at 0.01 µM", "setting": "[10]", "result": 92, "unit": "%"}, {"measurement": "growth at 0.01 µM", "setting": "NCI-H226 [11]", "result": 93, "unit": "%"}, {"measurement": "growth at 0.01 µM", "setting": "NCI-H522", "result": 98, "unit": "%"}, {"measurement": "growth at 0.01 µM", "setting": "[12]", "result": 97, "unit": "%"}, {"measurement": "growth at 1 µM", "setting": "NCI-H226 [13]", "result": 98, "unit": "%"}, {"measurement": "growth at 1 µM", "setting": "[14]", "result": 86, "unit": "%"}, {"measurement": "growth at 1 µM", "setting": "[15]", "result": 94, "unit": "%"}, {"measurement": "growth at 1 µM", "setting": "[16]", "result": 74, "unit": "%"}, {"measurement": "growth at 1 µM", "setting": "[17]", "result": 91, "unit": "%"}, {"measurement": "growth at 100 µM", "setting": "EKVX", "result": -32, "unit": "%"}, {"measurement": "growth at 100 µM", "setting": "NCI-H460", "result": 10, "unit": "%"}, {"measurement": "growth at 1 µM", "setting": "ACHN [18]", "result": 93, "unit": "%"}, {"measurement": "growth at 100 µM", "setting": "[19]", "result": 30, "unit": "%"}, {"measurement": "growth at 100 µM", "setting": "[20]", "result": -24, "unit": "%"}, {"measurement": "growth at 100 µM", "setting": "[21]", "result": -25, "unit": "%"}, {"measurement": "growth at 100 µM", "setting": "[22]", "result": -68, "unit": "%"}, {"measurement": "growth at 100 µM", "setting": "A498", "result": -40, "unit": "%"}, {"measurement": "growth at 100 µM", "setting": "[23]", "result": 28, "unit": "%"}, {"measurement": "growth at 100 µM", "setting": "[24]", "result": -12, "unit": "%"}]}
